Laboratory results as given in patent publication US8937056B2, “Multikinase inhibitors for use in the treatment of cancer” (Eisai R&D Management Co., Ltd., priority 2007, dated 2015).

Assays:
Assay in all cases: Kinase inhibition, full range of concentrations
Type in all cases: biochemical
Details in all cases: 10 μM ATP, duplicate measurements
[1] = target: TrkB (Homo sapiens, UniProt Q16620)
Method: (§1) In a final reaction volume of 25 μL, each human enzyme was incubated with appropriate buffer. The reaction was initiated by the addition of the MgATP mix with [γ^33P-ATP]. After incubation for 40 minutes at room temperature, the reaction was stopped by the addition of 5 μL of a phosphoric acid solution. All assays were performed at an ATP concentration of 10 μM.
(§2) 10 μL of the reaction was spotted onto a P30 filtermat and washed three times for 5 minutes in a phosphoric acid solution. ^33P transferred to a substrate peptide was then determined by scintillation counting. The results were expressed as a percentage of that in control incubations.
(§3) Furthermore, inhibitory activities of the compounds were confirmed against six of these kinases with a full range of concentrations. Three cytoplasmic Src family kinases were studied: c-Src, Fyn and Lyn. We also studied cytoplasmic Abl kinase and two receptor tyrosine kinases: Flt3, and TrkB. A standard ATP concentration of 10 μM was used in all reactions. All experiments were conducted with duplicate measurements. […] TrkB and members of the Src family were the most sensitive enzymes to Compound 091 inhibition.

[2] = target: Abl kinase (Homo sapiens, UniProt P00519)
Method: as §1, §2, §3

[3] = target: Lyn (Homo sapiens, UniProt P07948)
Method: as §1, §2, §3

[4] = target: c-Src (Homo sapiens, UniProt P12931)
Method: as §1, §2, §3

[5] = target: Fyn (Homo sapiens, UniProt P06241)
Method: as §1, §2, §3

[6] = target: T1, Flt3 (Homo sapiens, UniProt P36888)
T1 sequence (P36888 27-993): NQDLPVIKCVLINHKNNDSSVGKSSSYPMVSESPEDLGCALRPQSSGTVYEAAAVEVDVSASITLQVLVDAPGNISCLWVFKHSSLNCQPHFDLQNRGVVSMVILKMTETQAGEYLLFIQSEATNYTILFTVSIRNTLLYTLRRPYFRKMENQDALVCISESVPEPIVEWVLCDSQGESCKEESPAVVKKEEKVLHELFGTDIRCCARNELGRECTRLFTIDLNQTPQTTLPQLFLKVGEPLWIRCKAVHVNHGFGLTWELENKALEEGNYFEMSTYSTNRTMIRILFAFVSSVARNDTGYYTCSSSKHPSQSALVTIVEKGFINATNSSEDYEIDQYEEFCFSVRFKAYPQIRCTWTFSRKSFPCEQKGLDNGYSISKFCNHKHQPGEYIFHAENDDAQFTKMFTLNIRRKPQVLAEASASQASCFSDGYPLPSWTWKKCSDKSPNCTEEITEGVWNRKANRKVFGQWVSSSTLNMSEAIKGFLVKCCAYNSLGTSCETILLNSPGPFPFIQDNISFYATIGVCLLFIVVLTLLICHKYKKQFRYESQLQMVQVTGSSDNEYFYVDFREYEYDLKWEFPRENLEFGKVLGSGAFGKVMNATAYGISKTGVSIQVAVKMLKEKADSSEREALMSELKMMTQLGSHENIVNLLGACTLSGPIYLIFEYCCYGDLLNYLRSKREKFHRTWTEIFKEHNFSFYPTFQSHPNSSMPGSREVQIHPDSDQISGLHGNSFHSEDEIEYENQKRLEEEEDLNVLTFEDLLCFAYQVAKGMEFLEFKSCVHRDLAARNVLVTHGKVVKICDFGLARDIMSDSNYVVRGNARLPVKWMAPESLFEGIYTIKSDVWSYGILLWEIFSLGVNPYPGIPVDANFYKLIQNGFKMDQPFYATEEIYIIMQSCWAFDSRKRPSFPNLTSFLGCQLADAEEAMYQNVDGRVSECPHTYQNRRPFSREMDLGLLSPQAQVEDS
Method: as §1, §2, §3

Measured: IC50

Lyn, sequence (P07948 whole entry): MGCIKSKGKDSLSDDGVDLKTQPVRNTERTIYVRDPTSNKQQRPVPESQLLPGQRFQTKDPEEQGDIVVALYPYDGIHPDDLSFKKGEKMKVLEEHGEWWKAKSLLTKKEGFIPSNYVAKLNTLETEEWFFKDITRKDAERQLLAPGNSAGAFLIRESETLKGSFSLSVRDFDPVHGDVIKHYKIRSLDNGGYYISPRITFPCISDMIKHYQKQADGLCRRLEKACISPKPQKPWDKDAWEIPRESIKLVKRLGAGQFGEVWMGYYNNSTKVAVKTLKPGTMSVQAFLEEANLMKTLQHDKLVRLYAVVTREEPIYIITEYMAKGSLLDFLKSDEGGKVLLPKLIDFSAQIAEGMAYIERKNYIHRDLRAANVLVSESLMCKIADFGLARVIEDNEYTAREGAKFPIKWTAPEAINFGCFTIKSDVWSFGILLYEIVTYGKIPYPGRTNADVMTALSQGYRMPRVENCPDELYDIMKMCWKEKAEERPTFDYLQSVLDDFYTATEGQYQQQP
Fyn, sequence (P06241 whole entry): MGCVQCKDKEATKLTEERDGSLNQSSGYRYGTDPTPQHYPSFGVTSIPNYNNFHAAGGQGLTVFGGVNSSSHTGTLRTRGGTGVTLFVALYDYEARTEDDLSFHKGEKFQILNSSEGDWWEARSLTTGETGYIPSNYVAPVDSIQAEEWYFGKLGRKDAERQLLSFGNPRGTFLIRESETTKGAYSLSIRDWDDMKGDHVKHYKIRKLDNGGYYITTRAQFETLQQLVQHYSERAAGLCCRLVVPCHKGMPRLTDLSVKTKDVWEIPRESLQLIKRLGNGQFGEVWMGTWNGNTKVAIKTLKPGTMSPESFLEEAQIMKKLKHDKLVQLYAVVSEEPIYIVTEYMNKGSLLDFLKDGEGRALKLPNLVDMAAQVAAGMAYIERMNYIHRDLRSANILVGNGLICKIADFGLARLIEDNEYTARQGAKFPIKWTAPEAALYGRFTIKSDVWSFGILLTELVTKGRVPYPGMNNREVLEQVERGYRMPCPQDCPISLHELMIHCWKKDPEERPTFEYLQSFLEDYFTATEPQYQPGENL
TrkB, sequence (Q16620 32-822): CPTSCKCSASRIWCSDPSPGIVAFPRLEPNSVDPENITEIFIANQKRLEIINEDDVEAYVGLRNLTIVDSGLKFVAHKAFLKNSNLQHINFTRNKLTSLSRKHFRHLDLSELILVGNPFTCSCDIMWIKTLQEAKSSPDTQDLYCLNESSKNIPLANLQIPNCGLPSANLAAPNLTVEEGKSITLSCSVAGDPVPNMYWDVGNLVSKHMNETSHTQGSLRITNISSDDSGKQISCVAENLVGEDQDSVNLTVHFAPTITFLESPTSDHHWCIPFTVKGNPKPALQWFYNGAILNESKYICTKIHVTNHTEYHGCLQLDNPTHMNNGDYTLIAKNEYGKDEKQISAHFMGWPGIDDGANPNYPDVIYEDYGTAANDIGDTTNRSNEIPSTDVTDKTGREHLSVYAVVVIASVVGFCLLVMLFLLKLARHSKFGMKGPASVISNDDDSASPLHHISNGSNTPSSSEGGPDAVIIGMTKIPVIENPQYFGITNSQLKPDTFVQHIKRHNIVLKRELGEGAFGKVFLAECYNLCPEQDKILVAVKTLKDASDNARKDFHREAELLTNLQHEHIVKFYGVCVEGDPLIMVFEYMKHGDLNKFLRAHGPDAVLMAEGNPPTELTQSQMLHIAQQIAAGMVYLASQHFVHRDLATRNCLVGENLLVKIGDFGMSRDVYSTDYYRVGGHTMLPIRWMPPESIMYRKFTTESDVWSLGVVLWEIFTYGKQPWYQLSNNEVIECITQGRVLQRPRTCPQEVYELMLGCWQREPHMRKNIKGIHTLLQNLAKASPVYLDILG
c-Src, sequence (P12931 whole entry): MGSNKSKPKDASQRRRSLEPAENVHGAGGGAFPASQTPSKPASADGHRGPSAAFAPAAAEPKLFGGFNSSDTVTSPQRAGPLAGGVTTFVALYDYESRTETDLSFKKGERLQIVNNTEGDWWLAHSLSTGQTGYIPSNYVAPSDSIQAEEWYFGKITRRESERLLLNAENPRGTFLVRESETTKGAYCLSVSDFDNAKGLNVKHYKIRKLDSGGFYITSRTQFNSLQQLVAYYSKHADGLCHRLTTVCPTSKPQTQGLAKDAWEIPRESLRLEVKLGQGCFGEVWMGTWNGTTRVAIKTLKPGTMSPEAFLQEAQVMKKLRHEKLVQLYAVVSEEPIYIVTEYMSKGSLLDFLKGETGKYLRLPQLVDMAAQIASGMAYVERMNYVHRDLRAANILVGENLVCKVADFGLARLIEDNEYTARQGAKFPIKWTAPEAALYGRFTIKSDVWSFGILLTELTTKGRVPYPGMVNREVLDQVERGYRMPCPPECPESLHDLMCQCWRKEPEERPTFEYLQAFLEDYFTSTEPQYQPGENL
Abl kinase, sequence (P00519 whole entry): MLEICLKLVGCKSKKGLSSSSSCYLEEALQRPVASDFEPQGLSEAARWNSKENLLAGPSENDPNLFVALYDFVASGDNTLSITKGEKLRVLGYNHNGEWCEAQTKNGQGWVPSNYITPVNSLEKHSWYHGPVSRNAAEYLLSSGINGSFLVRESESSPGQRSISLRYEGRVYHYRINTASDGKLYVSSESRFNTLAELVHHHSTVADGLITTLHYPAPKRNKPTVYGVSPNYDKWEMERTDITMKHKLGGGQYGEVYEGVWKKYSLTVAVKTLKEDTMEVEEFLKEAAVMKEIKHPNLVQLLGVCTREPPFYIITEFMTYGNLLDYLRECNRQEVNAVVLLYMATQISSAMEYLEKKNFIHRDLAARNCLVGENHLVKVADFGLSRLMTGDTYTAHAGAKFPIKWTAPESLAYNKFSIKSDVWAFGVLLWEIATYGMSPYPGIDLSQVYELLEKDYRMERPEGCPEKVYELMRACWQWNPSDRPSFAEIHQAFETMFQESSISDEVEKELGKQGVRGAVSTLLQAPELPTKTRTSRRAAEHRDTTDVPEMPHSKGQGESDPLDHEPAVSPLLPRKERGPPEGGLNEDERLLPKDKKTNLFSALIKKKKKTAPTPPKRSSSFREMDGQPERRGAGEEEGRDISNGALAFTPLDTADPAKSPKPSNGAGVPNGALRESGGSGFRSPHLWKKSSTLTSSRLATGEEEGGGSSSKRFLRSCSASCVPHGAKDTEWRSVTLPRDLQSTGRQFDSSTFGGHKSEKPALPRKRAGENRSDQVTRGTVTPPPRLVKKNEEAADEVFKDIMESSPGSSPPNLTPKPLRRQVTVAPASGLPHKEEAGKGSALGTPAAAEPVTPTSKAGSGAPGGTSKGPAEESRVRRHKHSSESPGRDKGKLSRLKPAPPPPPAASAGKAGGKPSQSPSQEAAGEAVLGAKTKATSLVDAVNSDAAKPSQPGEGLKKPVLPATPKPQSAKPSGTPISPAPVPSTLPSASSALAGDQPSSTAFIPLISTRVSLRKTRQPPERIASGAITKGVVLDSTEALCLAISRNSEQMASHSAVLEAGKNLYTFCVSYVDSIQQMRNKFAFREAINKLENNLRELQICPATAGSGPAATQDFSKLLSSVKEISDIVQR

CNc1cc(O)c2c(c1)/C=C/C[C@H](O)[C@H](O)C(=O)/C=C\[C@@H](C)[C@H](C)OC2=O [Compound 091]
< 214 nM: all assays above
